Laboratory results reported in paper PMC7520419 (The AAPS Journal, 2020).
Values after ≈ are worked out from the molar mass of the structure shown. Counter-ions that a name gives are not always drawn. Like-named read-outs stand apart in the source and are kept apart here.

What was measured:
[1] = parameters: method as in Table I reference column; conditions: not generated within this working group; ref Table I; cited from earlier work
[2] = parameters: Food Effect (graded symbols): key to the marks not given beside the values; conditions: cited from earlier work
[3] = Effective human jejunum permeability (Peff,man) used in the PBPK model; type: in vitro ADME
Protocol: Permeation rates of the compounds, including reference compounds, were measured in the apical-to-basolateral (AB) direction. The donor and receiver wells were sampled immediately after application of the compound to the donor well to determine baseline concentrations, and again after 1 h. Quantification was done using high-performance liquid chromatography combined with mass spectrometry (HPLC-MS/MS) analysis and monolayer integrity was verified by analyzing the receiver samples for LuY fluorescence in a plate reader.

[4] = pKa
[5] = cited from earlier work; for Solubility at pH 6.5: not generated within this working group, ref Table I
[6] = BCS classification; type: physicochemical
[7] = Solubility measurement in aqueous buffer solutions; conditions: for solubility: pH 6.5, aqueous buffer, thermodynamic from solid
Protocol: (§1) The solubility of the drug substances was determined in biorelevant media as well as in aqueous buffers at different pH. Fasted state simulated gastric fluid (FaSSGF) ([37]), fasted state simulated intestinal fluid (FaSSIF-V2) ([38]), and fed state simulated intestinal fluid (FeSSIF-V2) ([39]) were prepared according to the instructions provided by Biorelevant (Biorelevant.com Ltd., London, UK). […] For neutral compounds, solubility was determined at pH 2, pH 4, and pH 7.
(§2) For freely soluble compounds, the extent of solubilization was measured only up to 10 mg/mL.

[8] = PBPK food effect modeling (Simcyp V17.1 and/or GastroPlus V9.5; Model 1 / Model 2); parameters: species or system human
[9] = system: Caco-2; conditions: cited from earlier work
[10] = Solubility measurement in biorelevant media (FaSSIF-V2, FeSSIF-V2); conditions: for solubility: 37 °C, thermodynamic from solid
Protocol: as §1, §2

[11] = Model 2, fasted, ref published clinical data (Table I)
[12] = Model 2, fed, ref published clinical data (Table I)
[13] = micronized formulation, healthy volunteers, high-fat breakfast
[14] = Model 2, ref published clinical data (Table I)
[15] = direction, AUC and/or Cmax ratio fed to fasted, BE criteria 0.8–1.25, ref drug label
[16] = Model 1, fasted, ref published clinical data (Table I)
[17] = Model 1, fed, ref published clinical data (Table I)
[18] = Model 1, ref published clinical data (Table I)
[19] = clinically observed PK change (AUC, Cmax) fed vs fasted, compiled by literature search
[20] = not generated within this working group, ref Table I
[21] = FaSSIF-V2 (fasted state simulated intestinal fluid), FaSSIF solubility
[22] = FeSSIF-V2 (fed state simulated intestinal fluid), FeSSIF solubility

Effective permeability ([3]; human, 1 h)	pKa ([4]; pKa (a, acidic))	SMILES	FaSSIF solubility [1]	FeSSIF solubility [1]	Observed AUC(0-inf) Fasted [2, 11]	Observed Cmax Fasted [2, 11]	Observed AUC(0-inf) Fed [2, 12]	Observed Cmax Fed [2, 12]	pKa ([4]; pKa (b, basic))	solubility [7]	Observed AUC Ratios (Fed/Fasted) [2, 14]	Observed Cmax Ratios (Fed/Fasted) [2, 14]	Food Effect [2, 15]	AUC Ratio of Ratios (Sim'd / Obs'd) ([8]; Model 2)	Cmax Ratio of Ratios (Sim'd / Obs'd) ([8]; Model 2)	Observed AUC(0-inf) Fasted [2, 16]	Observed Cmax Fasted [2, 16]	Observed AUC(0-inf) Fed [2, 17]	Observed Cmax Fed [2, 17]	Food Effect [2, 19]	other results
240 ×10⁻⁶ cm/s	9.15	C[C@@H](O[C@H]1OCCN(Cc2n[nH]c(=O)[nH]2)[C@H]1c1ccc(F)cc1)c1cc(C(F)(F)F)cc(C(F)(F)F)c1 [Aprepitant]	5.4 µg/mL	92.4 µg/mL	8570 ng·h/mL	496 ng/mL	24100 ng·h/mL	1100 ng/mL	2.45	–	–	–	–	–	–	–	–	–	–	–	AUC observed, fasted ([2]; 100 mg micronized): 8571 ng·h/mL; AUC observed, fed ([2]; 100 mg micronized): 24,057 ng.h/ml; Cmax observed, fasted ([2]; 100 mg micronized): 496 ng/mL; Cmax observed, fed ([2]; 100 mg micronized): 1098 ng/mL; Food Effect ([2]; Micronized, fed vs fasted, compiled by literature search): Positive (positive if the ratio of fed > fasted); Food Effect ([2]; Nanonized, fed vs fasted, compiled by literature search): None (none if no significant change in AUC and Cmax with food); increase in AUC with food [2, 13]: 2.8 fold; increase in Cmax with food [2, 13]: 2.2 fold; Solubility at pH 6.5 [5]: 0.7 μg/ml; solubility in US Pharmacopeia Simulated Intestinal Fluids (SIFsp) ([5]; pH 6.8): 0.7 µg/mL (≈ 1.31 µM); solubility in water ([5]; pH 8.0, thermodynamically stable form): 7 µg/mL (≈ 13.1 µM); BCS [6]: II/IV
–	9.4	CC(C)(C)c1cc(C(C)(C)C)c(NC(=O)c2c[nH]c3ccccc3c2=O)cc1O [Ivacaftor]	53^^ μg/ml	550^^ μg/ml	–	–	–	–	–	–	–	–	Positive (positive if the ratio of fed > fasted)	–	–	3120 ng·h/mL	148 ng/mL	9590 ng·h/mL	637 ng/mL	Positive (positive if the ratio of fed > fasted)	AUC Ratio of Ratios (Sim'd / Obs'd) ([8]; Model 1): 1.03; Cmax Ratio of Ratios (Sim'd / Obs'd) ([8]; Model 1): 1.15; Observed AUC Ratios (Fed/Fasted) [2, 18]: 3.07; Observed Cmax Ratios (Fed/Fasted) [2, 18]: 4.30; Apparent permeability (Caco-2) [9, 20]: 11.9 (Caco-2)^^ × 10^−6 cm/s; Solubility at pH 6.5 [5]: 0.5^^ μg/ml; BCS [6]: II/IV

Continued, compound first:

SMILES	Effective permeability ([3]; human, 1 h)	pKa ([4]; pKa (a, acidic))	FaSSIF solubility [1]	FeSSIF solubility [1]	Observed AUC(0-inf) Fasted [2, 11]	Observed Cmax Fasted [2, 11]	Observed AUC(0-inf) Fed [2, 12]	Observed Cmax Fed [2, 12]	pKa ([4]; pKa (b, basic))	solubility [7]	Observed AUC Ratios (Fed/Fasted) [2, 14]	Observed Cmax Ratios (Fed/Fasted) [2, 14]	Food Effect [2, 15]	AUC Ratio of Ratios (Sim'd / Obs'd) ([8]; Model 2)	Cmax Ratio of Ratios (Sim'd / Obs'd) ([8]; Model 2)	Observed AUC(0-inf) Fasted [2, 16]	Observed Cmax Fasted [2, 16]	Observed AUC(0-inf) Fed [2, 17]	Observed Cmax Fed [2, 17]	Food Effect [2, 19]	other results
CC(C)(C)c1nc(-c2cccc(NS(=O)(=O)c3c(F)cccc3F)c2F)c(-c2ccnc(N)n2)s1 [Dabrafenib]	–	6.6	6.2^^ μg/ml	6.8^^ μg/ml	12100 ng·h/mL	2160 ng/mL	8470 ng·h/mL	1070 ng/mL	2.2	1 µg/mL (≈ 1.92 µM)	0.70	0.49	Negative (negative if ratio fasted > fed)	–	–	–	–	–	–	–	–
NNC(=O)c1ccncc1 [Isoniazid]	400 ×10⁻⁶ cm/s	–	–	–	18500 ng·h/mL	5870 ng/mL	14800 ng·h/mL	2730 ng/mL	1.8	128000 µg/mL (≈ 933000 µM)	0.80	0.47	Negative (negative if ratio fasted > fed)	0.91	1.46	24600 ng·h/mL	5000 ng/mL	19500 ng·h/mL	2500 ng/mL	Negative (negative if ratio fasted > fed)	AUC Ratio of Ratios (Sim'd / Obs'd) ([8]; Model 1): 1.08; Cmax Ratio of Ratios (Sim'd / Obs'd) ([8]; Model 1): 1.48; Observed AUC Ratios (Fed/Fasted) [2, 18]: 0.79; Observed Cmax Ratios (Fed/Fasted) [2, 18]: 0.50; Apparent permeability (Caco-2) [9, 20]: 16 (Caco-2)^^ × 10^−6 cm/s
COCCc1ccc(OCC(O)CNC(C)C)cc1 (stereo not drawn) [Metoprolol]	–	–	–	–	–	–	–	–	–	17100 µg/mL (≈ 64000 µM)	–	–	–	–	–	302 ng·h/mL	111 ng/mL	426 ng·h/mL	148 ng/mL	–	–
CCc1nn(CCCN2CCN(c3cccc(Cl)c3)CC2)c(=O)n1CCOc1ccccc1 [Nefazodone HCl]	220 ×10⁻⁶ cm/s	–	–	–	1540 ng·h/mL	301 ng/mL	1240 ng·h/mL	295 ng/mL	–	5380 µg/mL	0.80	0.98	Negative (negative if ratio fasted > fed)	1.47	1.05	1540 ng·h/mL	301 ng/mL	1240 ng·h/mL	295 ng/mL	–	AUC Ratio of Ratios (Sim'd / Obs'd) ([8]; Model 1): 0.97; Cmax Ratio of Ratios (Sim'd / Obs'd) ([8]; Model 1): 0.84; Observed AUC Ratios (Fed/Fasted) [2, 18]: 0.80; Observed Cmax Ratios (Fed/Fasted) [2, 18]: 0.98; food effect (FE) direction ([2]; ref drug label): negative FE; solubility [10, 21]: 1390 µg/mL; solubility [10, 22]: 3100 µg/mL; pKa (b, basic) [4]: 6.50b; Apparent permeability (Caco-2) [9, 20]: 11 (Caco-2) ^^ × 10^−6 cm/s
Cc1c(O)cccc1C(=O)N[C@@H](CSc1ccccc1)[C@H](O)CN1C[C@H]2CCCC[C@H]2C[C@H]1C(=O)NC(C)(C)C [Nelfinavir mesylate]	70 ×10⁻⁶ cm/s	–	22^^ μg/ml	243^^ μg/ml	7080 ng·h/mL	895 ng/mL	35800 ng·h/mL	3910 ng/mL	6	–	5.06	4.37	Positive (positive if the ratio of fed > fasted)	0.58	0.66	–	–	–	–	Positive (positive if the ratio of fed > fasted)	food effect (FE) direction ([2]; ref drug label): positive FE; Solubility at pH 6.5 [5]: 41.4^^ μg/ml; BCS [6]: II/IV
Cc1[nH]c2ccccc2c1CCNCc1ccc(/C=C/C(=O)NO)cc1 [Panobinostat]	230 ×10⁻⁶ cm/s	8.35	140^^ μg/ml	230^^ μg/ml	128 ng·h/mL	17.5 ng/mL	108 ng·h/mL	9.8 ng/mL	9	–	0.85	0.56	None (none if no significant change in AUC and Cmax with food)	1.25	1.42	148 ng·h/mL	17.5 ng/mL	124 ng·h/mL	9.8 ng/mL	None (none if no significant change in AUC and Cmax with food)	AUC Ratio of Ratios (Sim'd / Obs'd) ([8]; Model 1): 1.25; Cmax Ratio of Ratios (Sim'd / Obs'd) ([8]; Model 1): 0.61; Observed AUC Ratios (Fed/Fasted) [2, 18]: 0.84; Observed Cmax Ratios (Fed/Fasted) [2, 18]: 0.56; Apparent permeability (Caco-2) [9, 20]: 11 (Caco-2)^^ × 10^−6 cm/s; Solubility at pH 6.5 [5]: 261^^ μg/ml
CC1(C)CCC(CN2CCN(c3ccc(C(=O)NS(=O)(=O)c4ccc(NCC5CCOCC5)c([N+](=O)[O-])c4)c(Oc4cnc5[nH]ccc5c4)c3)CC2)=C(c2ccc(Cl)cc2)C1 [Venetoclax]	–	3.4	–	–	2080 ng·h/mL	150 ng/mL	7100 ng·h/mL	500 ng/mL	10.3	6 µg/mL (≈ 6.91 µM)	3.41	3.33	Positive (positive if the ratio of fed > fasted)	0.79	0.75	–	–	–	–	Positive (positive if the ratio of fed > fasted)	solubility [10, 21]: 0.0337 µg/mL (≈ 0.0388 µM); solubility [10, 22]: 26.4 µg/mL (≈ 30.4 µM)
Cl.O=C1Cc2cc(CCN3CCN(c4nsc5ccccc45)CC3)c(Cl)cc2N1 [Ziprasidone HCl]	–	–	–	–	–	–	–	–	–	–	–	–	–	1.05	0.88	–	–	–	–	–	Solubility at pH 6.5 ([7]; room temperature): 1 μg/ml; Food Effect (graded symbols) ([2]; human, in vivo): ++; Observed AUC Ratios (Fed/Fasted) ([2]; human, in vivo): 2.01; Observed AUC(0-inf) Fasted ([2]; human, in vivo): 950 ng·h/mL; Observed AUC(0-inf) Fed ([2]; human, in vivo): 1910 ng·h/mL; Observed Cmax Fasted ([2]; human, in vivo): 84 ng/mL; Observed Cmax Fed ([2]; human, in vivo): 165 ng/mL; Observed Cmax Ratios (Fed/Fasted) ([2]; human, in vivo): 1.96; Effective permeability [3]: 230 ×10⁻⁶ cm/s; FaSSIF solubility ([10]; 37°C): 4 µg/mL; FeSSIF solubility ([10]; 37°C): 13 µg/mL; Apparent permeability (Caco-2) ([9]; Caco-2): 12.3 (Caco-2)^^ × 10^−6 cm/s
